This note sets out measurements from patent US8575218B2, “Thiol-containing compounds for the removal of elements from tissues and formulations therefor” (priority 2009, dated 2013).

Series [1] relates to goldfish. The series can be described thus: Exposure of goldfish to mercuric acetate with and without chelators. The class given is in vivo. As to the method:
Individual goldfish were placed in 200 ml water with 10 mM sodium chloride in 250 ml Erlenmeyer flasks (pH 7.00). Air was pumped into the flasks to maintain a healthy supply of oxygen. The 24 hour day was divided in to a 12 hour light/dark photoperiod. The goldfish were allowed to acclimatize for a week before the experiment was conducted, with daily water changes. Goldfish were fed standard fish food for 15 minutes each day before the water was changed.
The chelate ligands were dissolved in dimethyl sulfoxide (DMSO, 0.5 ml) before addition to the flasks. The experimental treatments evaluated are as listed in Table 1 below, and included mercuric acetate, B9, EEAB9, GB9, GEEAB9, and DMSO in the amounts shown in Table 1. B9 and EEAB9 were dissolved in DMSO (0.5 ml) before addition to the water. No precipitate was formed during the dissolution.

Series [2] is described as follows: Solubility of isolated product in solvents. It counts as physicochemical.

As for `CC(=O)[O-].CC(=O)[O-].[Hg+2]` [Mercuric acetate], the “Goldfish state (Alive/Dead) at 30 min” value in series [1] (mercuric acetate 0.5 mM + DMSO 0.5 ml) and in series [1] (mercuric acetate 0.5 mM alone) was “Dead” in each case. The “Time to death of goldfish” value in series [1] (mercuric acetate without chelator) is no more than 30 min.

Consider `NC(CCC(=O)NC(CSSCCNC(=O)c1cccc(C(=O)NCCSSCC(NC(=O)CCC(N)C(=O)O)C(=O)NCC(=O)O)c1)C(=O)NCC(=O)O)C(=O)O` (stereo not shown) [GB9], for which the Solubility in solvents entry in series [2] was “readily dissolved in water”.
